In PMC11215771 (Journal of Medicinal Chemistry, 2024):

Key:
[1] = target: T1, hCathepsinD in HEK293T cells (Homo sapiens, UniProt P07339); assay: Staining of transfected HEK293T cells, confocal imaging: Cathepsin D; format: cell-based
T1 construct: EGFP or mCherry (C); host or cells: HEK293T
Method: Next, we explored the performance of the new Alexa-C3 compounds in living cells. Because of the rather hydrophilic properties, we exclusively targeted the cell membrane. To prevent intracellular accumulation, we first performed stainings at 4 °C arresting ATP-dependent endocytosis. […] All of the constructs were tagged at the C-terminus with either EGFP or mCherry to visualize subcellular expression. […] With these experiments, we want to exclude that a lack of staining is caused by an impaired accessibility of the protein by Alexa-C3 compounds. […] We then tested samples with BACE1 expression after fixation of the cells with paraformaldehyde (PFA).
(D) All conjugates were also probed on cells fixed with 4% paraformaldehyde (PFA) for 15 min prior to staining. […] Scale bars represent 5 μm (A–D) and 20 μm (E). […] Samples were excited at 488, 561, and 633 nm, respectively.
HEK293T cells (ATCC accession number CRL-11268) were maintained in Dulbecco's modified Eagle's medium (Sigma-Aldrich D6046) with 1g/L glucose, supplemented with 10% FCS (Merck) and 1% penicillin/streptomycin (PAA). CHO-K1 cells (ATCC #CCL-61) were maintained in modified phenol red free RPMI-1640 medium (Sigma-Aldrich, R7509), supplemented with 2 mM L-glutamine (Sigma-Aldrich, G7513), and 10% FCS (Merck). Cells were cultured at 37 °C in a 5% CO2 atmosphere. […]

[2] = target: T2, wild-type hBACE1 in CHO-K1 cells (Homo sapiens, UniProt P56817); assay: Single molecule TIRF microscopy and bleaching step analysis in CHO-K1 cells; format: cell-based; conditions: 200 nM probe, fixed CHO-K1, TIRF, after rolling background subtraction
T2 construct: expressed in transfected cells; host or cells: CHO-K1
T2 sequence (P56817 46-501): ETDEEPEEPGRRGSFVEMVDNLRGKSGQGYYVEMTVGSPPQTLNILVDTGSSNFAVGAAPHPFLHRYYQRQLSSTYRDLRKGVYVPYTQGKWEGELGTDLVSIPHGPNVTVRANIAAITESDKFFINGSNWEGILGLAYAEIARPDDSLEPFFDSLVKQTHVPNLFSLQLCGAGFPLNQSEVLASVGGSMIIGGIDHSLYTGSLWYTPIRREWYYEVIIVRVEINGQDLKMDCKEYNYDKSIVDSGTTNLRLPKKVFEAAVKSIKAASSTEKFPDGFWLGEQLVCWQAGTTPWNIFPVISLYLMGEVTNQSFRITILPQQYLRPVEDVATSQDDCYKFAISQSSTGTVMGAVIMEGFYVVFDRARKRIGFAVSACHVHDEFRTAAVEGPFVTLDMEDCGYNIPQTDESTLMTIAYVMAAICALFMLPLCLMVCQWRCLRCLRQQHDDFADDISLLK
Method: Due to the high photostability and quantum yield of the Alexa dyes, the C3-compounds are potential tools for single molecule fluorescence microscopy of BACE1. […] CHO-K1 cells were transfected with wild-type BACE1. […] The samples were then recorded using total internal reflection fluorescence (TIRF) microscopy. […] Prior to analysis, ImageJ rolling background subtraction was applied[45] (Figure 6A, right panel). […] Single particles were identified and time traces of fluorescence intensity were extracted using GMimPro[46] (Figure 6B). The time traces were then subjected to a bleaching-step analysis with quickPBSA[47] (Figure 6B). […] The msfGFP was reported previously to display a fluorescence probability of about 50%, defined as combined probability of fluorescence, detection in the specific imaging system and identification in the analysis of a BACE1 molecule.[48] […] Here, the best fits indicated also a fluorescence probability of about 60%, but with a considerably lower fit error compared to dimers only (Figure 6D, blue traces).
The panel in the middle depicts typical single molecule complexes 48 h after transfection with 50 ng wild type BACE1. […] The insets highlight single fluorescence spots at higher magnification. […] (B) Single fluorescence spots were located and fluorescence intensities over time were extracted (see methods). […]

T1 sequence (P07339 65-412): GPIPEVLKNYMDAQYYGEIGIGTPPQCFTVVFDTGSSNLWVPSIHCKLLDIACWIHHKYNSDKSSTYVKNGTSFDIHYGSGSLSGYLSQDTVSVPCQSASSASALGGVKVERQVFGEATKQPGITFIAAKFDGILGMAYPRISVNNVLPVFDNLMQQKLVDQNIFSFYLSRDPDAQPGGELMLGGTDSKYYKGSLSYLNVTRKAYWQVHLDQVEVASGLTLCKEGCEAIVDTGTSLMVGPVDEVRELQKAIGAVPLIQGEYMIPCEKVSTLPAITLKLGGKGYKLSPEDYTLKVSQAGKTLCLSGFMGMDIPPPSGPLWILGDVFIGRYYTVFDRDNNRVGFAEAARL

Row | SMILES | staining of Cathepsin D [1] | signal-to-background ratio [2]
1 | C[C@@H](NC(=O)c1cc(C(=O)N[C@@H](Cc2ccccc2)[C@H](O)CNC2CC2)cc(N(C)S(=O)(=O)CCCNC(=O)CCCCCC2(C)C(/C=C/C=C/C=C3/N(CCCS(=O)(=O)O)c4ccc(S(=O)(=O)O)cc4C3(C)C)=[N+](CCCS(=O)(=O)[O-])c3ccc(S(=O)(=O)O)cc32)c1)c1ccccc1 (some centres unmarked) | not labeled | –
2 | C[C@@H](NC(=O)c1cc(C(=O)N[C@@H](Cc2ccccc2)[C@H](O)CNC2CC2)cc(N(C)S(=O)(=O)CCCNC(=O)c2ccc(C(=O)O)c(-c3c4ccc(=N)c(S(=O)(=O)O)c-4oc4c(S(=O)(=O)O)c(N)ccc34)c2)c1)c1ccccc1 [2-(6-Amino-3-iminio-4,5-disulfo-3H-xanthen-9-yl)-4-((3-(N-(3-(((2S,3R)-4-(cyclopropylamino)-3-hydroxy-1-phenylbutan-2-yl)carbamoyl)-5-(((R)-1-phenylethyl)carbamoyl)phenyl)-N-methylsulfamoyl)propyl)carbamoyl)benzoate] | – | 4.8
